molecular target: T1, human capsaicin receptor (Homo sapiens, UniProt Q8NER1); assay: Calcium mobilization assay, determination of antagonist activity (Example 6); assay type: cell-based; conditions: concentration giving 50% decrease in the fluorescence response of cells expressing human capsaicin receptor exposed to capsaicin
T1 construct: transfected with the pBK-CMV expression construct encoding the full length human capsaicin receptor; expressed in transfected cells; host or cells: HEK293, stably transfected clonal lines, plasmid pBK-CMV
T1 sequence (Q8NER1 whole entry): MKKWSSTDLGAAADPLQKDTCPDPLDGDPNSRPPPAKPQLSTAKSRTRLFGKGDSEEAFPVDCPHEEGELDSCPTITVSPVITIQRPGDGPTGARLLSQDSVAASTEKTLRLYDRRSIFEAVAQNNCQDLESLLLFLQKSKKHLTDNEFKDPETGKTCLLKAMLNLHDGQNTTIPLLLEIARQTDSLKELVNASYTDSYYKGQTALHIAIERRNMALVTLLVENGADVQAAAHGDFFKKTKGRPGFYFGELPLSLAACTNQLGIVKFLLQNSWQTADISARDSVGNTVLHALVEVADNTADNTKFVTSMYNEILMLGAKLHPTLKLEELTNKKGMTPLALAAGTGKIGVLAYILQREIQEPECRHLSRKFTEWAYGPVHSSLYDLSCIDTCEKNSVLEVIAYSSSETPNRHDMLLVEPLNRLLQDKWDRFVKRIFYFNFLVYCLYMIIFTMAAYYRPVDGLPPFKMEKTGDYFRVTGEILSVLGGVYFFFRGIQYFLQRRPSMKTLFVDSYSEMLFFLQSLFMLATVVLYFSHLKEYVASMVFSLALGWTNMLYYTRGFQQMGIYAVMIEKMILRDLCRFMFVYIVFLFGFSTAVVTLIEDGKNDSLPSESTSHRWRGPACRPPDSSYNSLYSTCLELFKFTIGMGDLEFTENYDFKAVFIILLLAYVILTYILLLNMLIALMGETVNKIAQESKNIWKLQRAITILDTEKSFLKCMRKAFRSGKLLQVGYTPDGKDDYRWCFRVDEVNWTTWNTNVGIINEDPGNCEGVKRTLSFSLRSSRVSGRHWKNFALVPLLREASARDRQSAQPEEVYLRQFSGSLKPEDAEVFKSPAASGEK
Protocol: A cDNA encoding full length human capsaicin receptor (SEQ ID NO:1, 2 or 3 of U.S. Pat. No. 6,482,611) was subcloned in the plasmid pBK-CMV (Stratagene, La Jolla, Calif.) for recombinant expression in mammalian cells.
Human embryonic kidney (HEK293) cells were transfected with the pBK-CMV expression construct encoding the full length human capsaicin receptor using standard methods. The transfected cells were selected for two weeks in media containing G418 (400 μg/ml) to obtain a pool of stably transfected cells. Independent clones were isolated from this pool by limiting dilution to obtain clonal stable cell lines for use in subsequent experiments.
Cells transfected with expression plasmids (as described in Example 4) and thereby expressing human capsaicin receptor are seeded and grown to 70-90% confluency in FALCON black-walled, clear-bottomed 96-well plates (#3904, BECTON-DICKINSON, Franklin Lakes, N.J.). The culture medium is emptied from the 96 well plates and FLUO-3 AM calcium sensitive dye (Molecular Probes, Eugene, Oreg.) is added to each well (dye solution: 1 mg FLUO-3 AM, 440 μL DMSO and 440 μl 20% pluronic acid in DMSO, diluted 1:250 in Krebs-Ringer HEPES (KRH) buffer (25 mM HEPES, 5 mM KCl, 0.96 mM NaH2PO4, 1 mM MgSO4, 2 mM CaCl2, 5 mM glucose, 1 mM probenecid, pH 7.4), 50 μl diluted solution per well). Plates are covered with aluminum foil and incubated at 37° C. for 1-2 hours in an environment containing 5% CO2. After the incubation, the dye is emptied from the plates, and the cells are washed once with KRH buffer, and resuspended in KRH buffer.
To measure the ability of a test compound to agonize or antagonize a calcium mobilization response in cells expressing capsaicin receptors to capsaicin or other vanilloid agonist, the EC50 of the agonist capsaicin is first determined. An additional 20 μl of KRH buffer and 1 μl DMSO is added to each well of cells, prepared as described above. 100 μl capsaicin in KRH buffer is automatically transferred by the FLIPR instrument to each well. Capsaicin-induced calcium mobilization is monitored using either FLUOROSKAN ASCENT (Labsystems; Franklin, Mass.) or FLIPR (fluorometric imaging plate reader system; Molecular Devices, Sunnyvale, Calif.) instruments. Data obtained between 30 and 60 seconds after agonist application are used to generate an 8-point concentration response curve, with final capsaicin concentrations of 1 nM to 3 μM. […] software (Synergy Software, Reading, Pa.) is used to fit the data to the equation: y=a*(1/(1+(b/x)^c)) to determine the 50% excitatory concentration (EC50) for the response. In this equation, y is the maximum fluorescence signal, x is the concentration of the agonist or antagonist (in this case, capsaicin), a is the Emax, b corresponds to the EC50 value and c is the Hill coefficient. Determination Agonist Activity
Test compounds are dissolved in DMSO, diluted in 20 μl KRH buffer so that the final concentration of test compounds in the assay well is between 1 μM and 5 μM, and added to cells prepared as described above. The 96 well plates containing prepared cells and test compounds are incubated in the dark, at room temperature for 0.5 to 6 hours. It is important that the incubation not continue beyond 6 hours. Just prior to determining the fluorescence response, 100 μl capsaicin in KRH buffer at twice the EC50 concentration determined as described above is automatically added by the FLIPR instrument to each well of the 96 well plate for a final sample volume of 200 μl and a final capsaicin concentration equal to the EC50. The final concentration of test compounds in the assay wells is between 1 μM and 5 μM.

SMILES | IC50 [µM]
FC(F)(F)c1ccc(Nc2nc(OCc3ccccc3C(F)(F)F)nc(OCc3ccccc3C(F)(F)F)n2)cc1 [Compound 15, [4,6-Bis-(2-trifluoromethyl-benzyloxy)-[1,3,5]triazin-2-yl]-(4-trifluoromethyl-phenyl)-amine] | ≤ 1
COc1cccc(CNc2cc(Nc3ccc(C(C)(C)C)cc3)ncn2)c1 [Compound 51, N-(4-tert-Butyl-phenyl)-N′-(3-methoxy-benzyl)-pyrimidine-4,6-diamine] | ≤ 1
CC(C)(C)c1ccc(Nc2cc(NCc3cccnc3)ncn2)cc1 [Compound 57, N-(4-tert-Butyl-phenyl)-N′-pyridin-3-ylmethyl-pyrimidine-4,6-diamine] | ≤ 1
CCCCNc1nc(Nc2ccc(C(F)(F)F)cc2)nc(OCc2ccccc2C(F)(F)F)n1 [Compound 62, N-Butyl-6-(2-trifluoromethyl-benzyloxy)-N′-(4-trifluoromethyl-phenyl)-[1,3,5]triazine-2,4-diamine] | ≤ 1
CC(C)(C)c1ccc(Nc2cc(NCc3ccccc3F)ncn2)cc1 [Compound 44, N-(4-tert-Butyl-phenyl)-N′-(2-fluoro-benzyl)-pyrimidine-4,6-diamine] | ≤ 1
Oc1nc(Nc2ccc(C(F)(F)F)cc2)nc(OCc2ccccc2C(F)(F)F)n1 [Compound 25, 4-(2-Trifluoromethyl-benzyloxy)-6-(4-trifluoromethyl-phenylamino)-[1,3,5]triazin-2-ol] | ≤ 1
COc1cc2c(cc1OC)CN(c1nc(Cl)nc(Nc3ccc(C(C)(C)C)cc3)n1)C(C)C2 (stereo not drawn) [Compound 7, (4-tert-Butyl-phenyl)-[4-chloro-6-(6,7-dimethoxy-3-methyl-3,4-dihydro-1H-isoquinolin-2-yl)-[1,3,5]triazin-2-yl]-amine] | ≤ 1
CC(C)(C)c1ccc(Nc2cc(NCc3ccccn3)ncn2)cc1 [Compound 56, N-(4-tert-Butyl-phenyl)-N′-pyridin-2-ylmethyl-pyrimidine-4,6-diamine] | ≤ 1
FC(F)(F)c1ccc(Nc2nc(NCCN3CCOCC3)nc(OCc3ccccc3C(F)(F)F)n2)cc1 [Compound 28, N-(2-Morpholin-4-yl-ethyl)-6-(2-trifluoromethyl-benzyloxy)-N′-(4-trifluoromethyl-phenyl)-[1,3,5]triazine-2,4-diamine] | ≤ 1
FC(F)(F)c1ccc(Nc2nc(Cl)nc(OCc3ccccc3C(F)(F)F)n2)cc1 [Compound 18, [4-Chloro-6-(2-trifluoromethyl-benzyloxy)-[1,3,5]triazin-2-yl]-(4-trifluoromethyl-phenyl)-amine] | ≤ 1
COc1cc2c(cc1OC)CN(c1nc(Cl)nc(Nc3ccc(C(C)(C)C)cc3)n1)CC2 [Compound 6, (4-tert-Butyl-phenyl)-[4-chloro-6-(6,7-dimethoxy-3,4-dihydro-1H-isoquinolin-2-yl)-[1,3,5]triazin-2-yl]-amine] | ≤ 1
FC(F)(F)c1ccc(Nc2nc(NC3CCCC3)nc(OCc3ccccc3C(F)(F)F)n2)cc1 [Compound 65, N-Cyclopentyl-6-(2-trifluoromethyl-benzyloxy)-N′-(4-trifluoromethyl-phenyl)-[1,3,5]triazine-2,4-diamine] | ≤ 1
FC(F)(F)c1ccc(Nc2nc(OCc3ccccc3C(F)(F)F)nc(-c3ccccc3Cl)n2)cc1 [Compound 9, [4-(2-Chloro-phenyl)-6-(2-trifluoromethyl-benzyloxy)-[1,3,5]triazin-2-yl]-(4-trifluoromethyl-phenyl)-amine] | ≤ 1
CC(C)(C)c1ccc(Nc2cc(OCc3ccccc3C(F)(F)F)ncn2)cc1 [Compound 8, (4-tert-Butyl-phenyl)-[6-(2-trifluoromethyl-benzyloxy)-pyrimidin-4-yl]-amine] | ≤ 1
CC(C)(C)c1ccc(Nc2cc(NCc3ccccc3)ncn2)cc1 [Compound 61, N-Benzyl-N′-(4-tert-butyl-phenyl)-pyrimidine-4,6-diamine] | ≤ 1
FC(F)(F)c1ccc(Nc2nc(NC3CCC3)nc(OCc3ccccc3C(F)(F)F)n2)cc1 [Compound 63, N-Cyclobutyl-6-(2-trifluoromethyl-benzyloxy)-N′-(4-trifluoromethyl-phenyl)-[1,3,5]triazine-2,4-diamine] | ≤ 1
CCN(CC)c1nc(Nc2ccc(C(F)(F)F)cc2)nc(OCc2ccccc2C(F)(F)F)n1 [Compound 59, N,N-Diethyl-6-(2-trifluoromethyl-benzyloxy)-N′-(4-trifluoromethyl-phenyl)-[1,3,5]triazine-2,4-diamine] | ≤ 1
FC(F)(F)c1ccc(Nc2nc(OCc3ccccc3C(F)(F)F)nc(N3CCOCC3)n2)cc1 [Compound 21, [4-Morpholin-4-yl-6-(2-trifluoromethyl-benzyloxy)-[1,3,5]triazin-2-yl]-(4-trifluoromethyl-phenyl)-amine] | ≤ 1
COc1ccccc1COc1nc(Cl)nc(Nc2ccc(C(C)(C)C)cc2)n1 [Compound 3, (4-tert-Butyl-phenyl)-[4-chloro-6-(2-methoxy-benzyloxy)-[1,3,5]triazin-2-yl]-amine] | ≤ 1
CC(C)(C)c1ccc(Nc2cc(OCc3ccccc3C(F)(F)F)nc(N)n2)cc1 [Compound 60, N4-(4-tert-Butyl-phenyl)-6-(2-trilfuoromethyl-benzyloxy)-pyrimidine-2,4-diamine] | ≤ 1
FC(F)(F)c1ccc(Nc2nc(NC3CCCCC3)nc(OCc3ccccc3C(F)(F)F)n2)cc1 [Compound 64, N-Cyclohexyl-6-(2-trifluoromethyl-benzyloxy)-N′-(4-trifluoromethyl-phenyl)-[1,3,5]triazine-2,4-diamine] | ≤ 1
FC(F)(F)c1ccc(Nc2nc(OCc3ccccc3C(F)(F)F)nc(-c3ccccc3)n2)cc1 [Compound 22, [4-Phenyl-6-(2-trifluoromethyl-benzyloxy)-[1,3,5]triazin-2-yl]-(4-trifluoromethyl-phenyl)-amine] | ≤ 1
COc1ccccc1CNc1nc(Cl)nc(Nc2ccc(C(C)(C)C)cc2)n1 [Compound 35, N-(4-tert-Butyl-phenyl)-6-chloro-N′-(2-methoxy-benzyl)-[1,3,5]triazine-2,4-diamine] | ≤ 1
CC(C)(C)c1ccc(Nc2nc(OCc3ccccc3C(F)(F)F)nc(OCc3ccccc3C(F)(F)F)n2)cc1 [Compound 14, [4,6-Bis-(2-trifluoromethyl-benzyloxy)-[1,3,5]triazin-2-yl]-(4-tert-butyl-phenyl)-amine] | ≤ 1
CC(C)(C)c1ccc(Nc2cc(NCc3ccccc3C(F)(F)F)ncn2)cc1 [Compound 49, N-(4-tert-Butyl-phenyl)-N′-(2-trifluoromethyl-benzyl)-pyrimidine-4,6-diamine] | ≤ 1
COc1ccccc1COc1nc(Nc2ccc(C(C)(C)C)cc2)nc(OCc2ccccc2OC)n1 [Compound 13, [4,6-Bis-(2-methoxy-benzyloxy)-[1,3,5]triazin-2-yl]-(4-tert-butyl-phenyl)-amine] | ≤ 1
COc1ccc(CNc2cc(Nc3ccc(C(C)(C)C)cc3)ncn2)cc1 [Compound 53, N-(4-tert-Butyl-phenyl)-N′-(4-methoxy-benzyl)-pyrimidine-4,6-diamine] | ≤ 1
CNc1nc(NCc2ccccc2Cl)nc(Nc2ccc(C(C)(C)C)cc2)n1 [Compound 41, N-(4-tert-Butyl-phenyl)-N′-(2-chloro-benzyl)-N″-methyl-[1,3,5]triazine-2,4,6-triamine] | ≤ 1
COc1ccccc1COc1nc(N)nc(Nc2ccc(C(C)(C)C)cc2)n1 [Compound 32, N-(4-tert-Butyl-phenyl)-6-(2-methoxy-benzyloxy)-[1,3,5]triazine-2,4-diamine] | ≤ 1
CC(C)(C)c1ccc(Nc2cc(NCc3ccncc3)ncn2)cc1 [Compound 58, N-(4-tert-Butyl-phenyl)-N′-pyridin-4-ylmethyl-pyrimidine-4,6-diamine] | ≤ 1
